Values of other authors, collected in patent publication US20210251946A1, “CANNABINOID-[…], FORMULATIONS, AND USES THEREOF FOR TREATING AMYOTROPHIC LATERAL SCLEROSIS” (GREEN RUSH SCIENCE, LLC, priority 2020, published 2021).

How the values were obtained:
[1] = system: ALS hSOD(G93A) mice; conditions: daily intraperitoneal administration, initiated after disease onset
[2] = system: ALS hSOD(G93A) mice; conditions: intraperitoneally, beginning after onset of motor impairment and tremor (at 90 days old)

| SMILES | increase of survival [1] | motor impairment [1] | disease progression [2] |
| --- | --- | --- | --- |
| CN1CCCCC1Cn1cc(C(=O)c2cc([N+](=O)[O-])ccc2I)c2ccccc21 (stereo not drawn) [AM-1241] | 56% | delayed motor impairment | – |
| Cc1c(C(=O)c2cccc3ccccc23)c2cccc3c2n1[C@H](CN1CCOCC1)CO3 [WIN 55,212-2] | – | – | significant delay in disease progression |
